{"source": "paper PMC5176352", "about": "“Structural basis for subtype-specific inhibition of the P2X7 receptor” (eLife, 2016)", "key": {"wildtype pdP2X7": {"molecular_target": "wildtype pdP2X7 (Ailuropoda melanoleuca, UniProt G1M6C4)", "assay": "BzATP dose response of YO-PRO-1 uptake with antagonists, fitted with competitive / non-competitive inhibition models", "assay_type": "cell-based, giant panda (Ailuropoda melanoleuca)", "conditions": "for Kb: curve fitting of BzATP dose responses", "excerpt": "To clarify the working mechanism for each drug, we measured the dose responses of the P2X7 mediated YO-PRO-1 uptake in the presence of each drug at multiple concentrations. We used BzATP—an artificial but potent agonist of P2X7 receptors—for these experiments to achieve saturating responses in the presence of concentrated antagonist.\n(§1) Human embryonic kidney (HEK293) cells were maintained in DMEM medium (Thermo Fisher Scientific) supplemented with 10% FBS (Atlanta Biologicals, Flowery Branch, GA), and 10 μg/mL gentamicin (Thermo Fisher Scientific). HEK293 cells were split into six well plates at a cell density of 2.0 × 10^6 cells/well and incubated overnight. […] Cells were washed with assay buffer (2 mM KCl, 0.1 mM CaCl2, 13 mM Glucose, 147 mM NaCl, 10 mM HEPES (pH 7.3)) and were incubated with 5 μM YO-PRO-1 Iodide (Thermo Fisher Scientific), in the presence or absence of antagonists at multiple concentrations at 37°C for 10 min. Upon application of 1 mM ATP (final), uptake of YO-PRO-1 was recorded with 1 min intervals by following the fluorescence change using a Synergy HT multi-detection microplate reader (Bio-Tek, Winooski, VT; Ex: 485 nm/20, Em:528 nm/20, sensitivity 60). To obtain the dose dependent uptake inhibition by antagonists, the initial rates of YO-PRO-1 uptake were plotted against multiple concentrations of the P2X7 specific drugs. The inhibition curves from five independent measurements were fitted to the Hill equation using Origin software (Originlab, Northampton, MA) to determine the IC50 values.\nDose response curves of the YO-PRO-1 uptake experiments were fitted with either competitive or non-competitive inhibition models using Origin 6.0 software (OriginLab) as previously described ([Kenakin, 2006]). For the competitive antagonism model, we used the equation: Response=[A]/KA/[A]KA(1+τ)+[B]/KB+1\nwhere [A] , [B] are the concentrations of BzATP and antagonists, respectively; KA and KB are the equilibrium dissociation-constant of BzATP and antagonists, respectively. […] KB was then determined using the dose response curves in the presence of antagonists. […] For the non-competitive inhibition model, we used the equation: Response=([A]^nτ^nEmax)/([A]^nτ^n+([A](1+α[B]/KB)+KA[B]/KB+KA)^n\nwhere n is the Hill coefficient, and Emax is the maximum initial rate. […] Schild regression analysis was performed as described previously ([Wyllie and Chen, 2007]). Briefly, concentrations of BzATP at half maximal initial rates of YO-PRO-1 uptake in the presence (EC50’) or absence (EC50) of antagonists were determined by fitting the dose responses with the Hill equation."}, "full length pdP2X7": {"molecular_target": "full length pdP2X7 (Ailuropoda melanoleuca, UniProt G1M6C4)", "assay": "YO-PRO-1 uptake assay (inhibition of ATP-triggered dye uptake)", "assay_type": "cell-based, giant panda (Ailuropoda melanoleuca)", "excerpt": "We further validated the drug-receptor interactions by site-directed mutagenesis on the drug-binding residues. To facilitate robust and systematic data collection, we monitored cellular uptake of the fluorescent dye, YO-PRO-1, as a proxy for receptor activity ([Surprenant et al., 1996]) (Figure 3—figure supplement 4A). […] In particular, interaction with F103 is crucial for the inhibitory action of all five drugs.\nas §1"}, "P2X7 receptor": {"molecular_target": "P2X7 receptor", "parameters": "method as in Yan et al., 2010", "conditions": "under physiological ion concentrations; ref Yan et al., 2010; read-out: EC50 for initial activation; cited from earlier work"}, "pdP2X7cryst": {"molecular_target": "T1, pdP2X7cryst (Ailuropoda melanoleuca, UniProt G1M6C4, E175K/N242S/N285S/R126A/V36A)", "T1 sequence (G1M6C4 23-360 V36A/R126A/E175K/N242S/N285S)": "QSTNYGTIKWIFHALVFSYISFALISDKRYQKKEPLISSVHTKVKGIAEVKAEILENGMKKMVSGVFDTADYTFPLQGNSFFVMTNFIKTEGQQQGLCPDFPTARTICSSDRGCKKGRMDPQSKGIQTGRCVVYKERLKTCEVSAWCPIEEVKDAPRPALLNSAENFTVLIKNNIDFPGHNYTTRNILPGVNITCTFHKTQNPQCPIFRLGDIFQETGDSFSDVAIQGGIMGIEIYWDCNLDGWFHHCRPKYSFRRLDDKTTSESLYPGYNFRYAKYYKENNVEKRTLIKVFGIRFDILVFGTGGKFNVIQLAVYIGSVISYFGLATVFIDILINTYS", "assay": "Whole cell patch clamp ATP dose response"}, "pdP2X7": {"molecular_target": "T2, pdP2X7 (Ailuropoda melanoleuca, UniProt G1M6C4)", "T2 sequence (G1M6C4 2-606)": "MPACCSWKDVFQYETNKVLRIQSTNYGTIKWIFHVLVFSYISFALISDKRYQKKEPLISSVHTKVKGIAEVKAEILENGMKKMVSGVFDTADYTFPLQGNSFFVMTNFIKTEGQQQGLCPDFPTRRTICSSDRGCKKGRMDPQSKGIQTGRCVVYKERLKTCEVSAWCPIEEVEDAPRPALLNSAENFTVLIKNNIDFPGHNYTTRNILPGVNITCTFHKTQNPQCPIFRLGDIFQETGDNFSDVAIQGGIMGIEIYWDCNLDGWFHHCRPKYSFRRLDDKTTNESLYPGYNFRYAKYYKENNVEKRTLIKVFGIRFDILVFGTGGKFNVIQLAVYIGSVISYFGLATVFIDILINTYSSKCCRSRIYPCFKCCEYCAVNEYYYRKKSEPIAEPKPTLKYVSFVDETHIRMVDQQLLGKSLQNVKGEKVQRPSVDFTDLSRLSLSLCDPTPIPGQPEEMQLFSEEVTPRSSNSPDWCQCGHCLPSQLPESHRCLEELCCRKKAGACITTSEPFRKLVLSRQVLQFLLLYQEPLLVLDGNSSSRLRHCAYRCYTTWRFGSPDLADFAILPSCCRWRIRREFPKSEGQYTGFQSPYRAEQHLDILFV", "assay": "Whole cell patch clamp ATP dose response"}, "[1]": {"conditions": "competitive model, read-out: KB (equilibrium dissociation-constant of antagonist), competitive antagonism model"}, "[2]": {"conditions": "non-competitive model, α = 1, read-out: KB (equilibrium dissociation-constant of antagonist), non-competitive inhibition model"}, "[3]": {"conditions": "HEK293 cells, YO-PRO-1 uptake initiated with 1 mM ATP, initial rates, wildtype, read-out: IC50"}, "[4]": {"conditions": "KB (equilibrium dissociation-constant of antagonist), competitive antagonism model, competitive model"}, "[5]": {"conditions": "KB (equilibrium dissociation-constant of antagonist), non-competitive inhibition model, non-competitive model, α = 1"}, "[6]": {"conditions": "data without antagonists, non-competitive model equation"}, "[7]": {"conditions": "dose response without antagonist, competitive model equation"}}, "note": "Read-outs that look alike come from different tables or passages of the source.", "data": [{"smiles": "COc1ccc(CC(=O)NC(N/C(=N/C#N)Nc2cccc3ncccc23)C(C)(C)C)cc1OC", "note": "(centres unmarked) [A740003, N-(1-{[(cyanoimino)(5-quinolinylamino)methyl]amino}-2,2-dimethylpropyl)-2-(3,4-dimethoxyphenyl)acetamide]", "values": [{"measurement": "Kb", "setting": "wildtype pdP2X7; [1]", "result": 0.024, "unit": "µM"}, {"measurement": "Kb", "setting": "wildtype pdP2X7; [2]", "result": 1.2, "unit": "µM"}, {"measurement": "IC50", "setting": "full length pdP2X7; [3]", "result": 0.0693, "unit": "µM"}]}, {"smiles": "C[C@H](N/C(=N/C#N)Nc1cccc2ncccc12)c1ccccc1", "note": "[A804598, 2-cyano-1-[(1S)-1-phenylethyl]-3-quinolin-5-ylguanidine]", "values": [{"measurement": "Kb", "setting": "wildtype pdP2X7; [1]", "result": 0.015, "unit": "µM"}, {"measurement": "Kb", "setting": "wildtype pdP2X7; [2]", "result": 0.57, "unit": "µM"}, {"measurement": "IC50", "setting": "full length pdP2X7; [3]", "result": 0.0217, "unit": "µM"}]}, {"smiles": "Nc1ncnc2c1ncn2[C@@H]1O[C@H](COP(=O)(O)OP(=O)(O)OP(=O)(O)O)[C@@H](O)[C@H]1O", "note": "[ATP, adenosine triphosphate]", "values": [{"measurement": "EC50", "setting": "P2X7 receptor", "result": "≥ 1000", "unit": "µM"}, {"measurement": "EC50", "setting": "pdP2X7cryst", "result": 40, "unit": "µM"}, {"measurement": "EC50", "setting": "pdP2X7", "result": 122, "unit": "µM"}]}, {"smiles": "O=C(CC12CC3CC(CC(C3)C1)C2)Nc1cccc2nc(NCCNCCO)ccc12", "note": "[AZ10606120]", "values": [{"measurement": "Kb", "setting": "wildtype pdP2X7; [4]", "result": 0.056, "unit": "µM"}, {"measurement": "Kb", "setting": "wildtype pdP2X7; [5]", "result": 3.4, "unit": "µM"}, {"measurement": "IC50", "setting": "full length pdP2X7", "result": 0.231, "unit": "µM"}]}, {"smiles": "Nc1ncnc2c1ncn2[C@@H]1O[C@H](COP(=O)(O)OP(=O)(O)OP(=O)(O)O)[C@@H](OC(=O)c2ccc(C(=O)c3ccccc3)cc2)[C@H]1O", "note": "[BzATP]", "values": [{"measurement": "KA (equilibrium dissociation-constant of BzATP), non-competitive inhibition model", "setting": "wildtype pdP2X7; [6]", "result": 220, "unit": "µM"}, {"measurement": "n (Hill coefficient), non-competitive inhibition model", "setting": "wildtype pdP2X7; [6]", "result": 2.6}, {"measurement": "τ, non-competitive inhibition model", "setting": "wildtype pdP2X7; [6]", "result": 10}, {"measurement": "KA (equilibrium dissociation-constant of BzATP), competitive antagonism model", "setting": "wildtype pdP2X7; [7]", "result": 28, "unit": "µM"}, {"measurement": "τ, competitive antagonism model", "setting": "wildtype pdP2X7; [7]", "result": 0.031}]}, {"smiles": "Cc1ccc(CN2CCNCC2)cc1NC(=O)CNc1ccc(F)c(F)c1", "note": "[GW791343]", "values": [{"measurement": "Kb", "setting": "wildtype pdP2X7; [4]", "result": 3, "unit": "µM"}, {"measurement": "Kb", "setting": "wildtype pdP2X7; [5]", "result": 266, "unit": "µM"}, {"measurement": "IC50", "setting": "full length pdP2X7", "result": 8.9, "unit": "µM"}]}, {"smiles": "O=C(NCC1(N2CCN(c3ccccc3)CC2)CCOCC1)c1cccnc1Sc1ccccc1", "note": "[JNJ47965567]", "values": [{"measurement": "Kb", "setting": "wildtype pdP2X7; [4]", "result": 0.0017, "unit": "µM"}, {"measurement": "Kb", "setting": "wildtype pdP2X7; [5]", "result": 0.14, "unit": "µM"}, {"measurement": "IC50", "setting": "full length pdP2X7", "result": 0.0119, "unit": "µM"}]}]}
